The source of these data is patent publication US12533439B2, “Antibacterial wound treatments with clot-promoting properties” (University of Georgia Research Foundation, Inc., priority 2019, dated 2026).

The conditions of series [1]: TXA administered within 1 hour of injury; cited from earlier work.
Series [2] relates to 3T3 mouse fibroblast cells. The series is described as follows: WST-8 (CCK-8) cell viability assay on dressing leachates. It is filed as cell-based. Particulars: 24-hour leachate.
Excerpt: The manufacturer's (Sigma-Aldrich) protocol was followed while using CCK-8 kit which utilizes highly water-soluble tetrazolium salt. In the live cells, WST-8 [2-(2-methoxy-4-nitrophenyl)-3-(4-nitrophenyl)-5-(2,4-disulfophenyl)-2H-tetrazolium monosodium salt] is reduced by dehydrogenases to give formazan (an orange-colored product), which can be detected at 450 nm. This means that a noncytotoxic material should generate a higher level of formazan than a relatively cytotoxic material because of WST-8 reduction. To obtain the leachate, samples weighing 10 mg each were added to 10 ml to in the DMEM medium for 24 hours at 37° C. The leachate was later used to grow the cells.
Seeding of cells. A culture of the fibroblast cells was grown in a 75 cm2 T-flask with Dulbecco modified Eagle's medium (DMEM) with 4.5 g/L-glutamine, 4.5 g/L glucose, 1% penicillin-streptomycin and 10% fetal bovine serum (FBS) after thawing a cryopreserved vial of fibroblast cells.^11 The cells could proliferate in an incubator which provided a physiological condition for their growth (5% CO2, 37° C.) until the confluence reached around 80-90%. […] The formula below was used to calculate cell viability.^12
To ensure that the components of wound dressing—CarboSil®, SNAP, TXA, and propolis—are not cytotoxic to the mammalian cells, a 24-hour cytotoxicity study was conducted on mouse fibroblast cells.

`NC[C@H]1CC[C@H](C(=O)O)CC1` [TXA, tranexamic acid]: the reduction in deaths in series [1] is recorded as 32%.
Turning to `CC(=O)N[C@H](C(=O)O)C(C)(C)SN=O` (racemic) [SNAP, S-nitroso-N-acetylpenicillamine], the “cytotoxicity (relative cell viability)” value in series [2] is listed as “non-cytotoxic”.
